In brackets after ≈: the same amount, converted by molar mass. Like-named read-outs stand apart in the source and are kept apart here.
What was measured:
[1] = system: mice; assay: Biochemical parameters in blood after restraint stress; format: in vivo, Balb/C mice; conditions: flavonoids 10 mg/kg, standard diazepam 2 mg/kg, 15 days, mean ± SEM
From the text: (§1) The adhesive tape was removed, and blood samples were collected. After blood collection, the animals were sacrificed, and the brain and vital organs were isolated and weighed.
After restrain test, blood samples were collected for the assessment of blood glucose, triglycerides and total cholesterol levels, using available commercial kits. […]

[2] = system: mice; assay: Biochemical parameters in brain after restraint stress; format: in vivo, Balb/C mice; conditions: flavonoids 10 mg/kg, standard diazepam 2 mg/kg, 15 days, mean ± SEM
[3] = system: acetic acid-induced stress mice; assay: Chemical induced stress (acetic acid model, writhes); format: in vivo, Balb/C mice
From the text: The anti-stress effect of synthesized flavonoids was screened for chemical-induced stress using the acetic acid model. Animals were randomly assigned into two groups of 8. The control group received Tween 80 (2%). […] The treatments in all groups were given persistently for a period of 15 days.

[4] = system: mice; assay: Swimming endurance test; format: in vivo, Balb/C mice; conditions: flavonoids 10 mg/kg, standard diazepam 2 mg/kg IP, 15 days; recorded for 30 min; mean ± SEM, n = 8
Description: Animals were divided at random into two groups of 8. Tween 80 (2%) was given to the control group, while animals in each group were treated with 10 mg/kg of each flavonoid. […] All the doses were given constantly for 15 days. On 15th day, one hour after the dose administration, all the animals were allowed to swim in isolation in a glass tank. The time of immobility for each animal was recorded for a period of 30 min [26, 27].

[5] = system: mice; assay: Restraint stress, organ weights; format: in vivo, Balb/C mice; conditions: restraint stress 2 h; flavonoids 10 mg/kg p.o., standard diazepam 2 mg/kg IP, 15 days; mean ± SEM
From the text: as §1

[6] = DPPH free radical scavenging assay; format: biochemical; conditions: concentration range 6.25–50 μg/mL, absorbance 517 nm
Description: Scavenging activities for DPPH and ABTS were calculated and the IC50 was determined.

[7] = Mus musculus, ip, 360 h; read-out: Antistress Response (%)
[8] = flavonoids 10 mg/kg, standard diazepam 2 mg/kg IP, 15 days; acetic acid i.p. 0.1 mL (6% v/v), writhes within 20 min; mean ± SEM, n = 8
[9] = Mus musculus, ip, 360 h, read-out: Antistress Response (%)

Structure (SMILES) | Glucose (blood) [1] | TGs (blood triglycerides) [1] | Total Ch (blood total cholesterol) [1] | Catalase (brain) [2] | SOD (brain) [2] | TBARS (brain lipid peroxidation) [2] | inhibition in vivo at 10 mg/kg [3, 7] | Number of Writhes [3, 8] | Immobility Time [4] | Weight of Adrenal Gland [5] | Weight of Brain [5] | Weight of Spleen [5] | inhibition in vivo at 10 mg/kg [3, 9] | IC50, scavenging against DPPH [6] | Immobility Time (Min) [4]
O=c1cc(-c2ccccc2)oc2ccccc12 [F1] | 105 ± 2.15 mg/dL | 54.39 ± 0.87 | 81.33 ± 0.61 | 16.33 ± 0.69 IU/dL | 7.96 ± 0.60 IU/dL | 19.42 ± 0.51 nmol/g | 58.9% | 19.45 ± 1.89 | 4.05 ± 0.45 min | 8.13 ± 1.69 mg | 398.1 ± 2.57 mg | 171.5 ± 2.71 mg | – | – | –
Cc1ccc(-c2cc(=O)c3ccccc3o2)cc1 [F2] | 99.23 ± 1.69 | 45.09 ± 0.67 | 78.61 ± 0.78 | 18.21 ± 0.61 IU/dL | 8.77 ± 0.59 IU/dL | 18.72 ± 0.62 nmol/g | 72.3% | – | 3.12 ± 0.38 min | 7.63 ± 1.11 mg | 401.6 ± 3.11 mg | 180.4 ± 2.38 mg | – | – | –
COc1ccc(-c2cc(=O)c3ccccc3o2)cc1 [F3] | 98.45 ± 1.51 | 44.69 ± 0.37 | 78.43 ± 0.93 | 18.92 ± 0.51 IU/dL | 9.42 ± 0.87 IU/dL | 18.44 ± 0.63 nmol/g | 74.4% | – | 2.88 ± 0.26 min | 7.22 ± 1.51 mg | 411.3 ± 2.93 mg | 181.7 ± 2.06 mg | – | – | –
O=c1cc(-c2ccc(Cl)cc2)oc2ccccc12 [F4] | 100.92 ± 1.91 | 47.51 ± 0.38 | 80.76 ± 0.91 | 17.88 ± 0.59 IU/dL | 9.31 ± 0.78 IU/dL | 19.09 ± 0.49 nmol/g | – | 16.21 ± 2.09 | 3.21 ± 0.19 min | 8.03 ± 1.98 mg | 402.4 ± 3.19 mg | 173.1 ± 2.66 mg | 65.8% | – | –
CN(C)c1ccc(-c2cc(=O)c3ccccc3o2)cc1 [F5] | 101.33 ± 1.72 | 46.72 ± 0.51 | 81.82 ± 0.85 | 17.11 ± 0.51 IU/dL | 8.04 ± 0.57 IU/dL | 19.02 ± 0.71 nmol/g | 64.6% | 16.31 ± 2.58 | 3.64 ± 0.21 min | 8.12 ± 1.81 mg | 412.7 ± 2.81 mg | 170.3 ± 2.61 mg | – | – | –
O=c1cc(-c2ccc(C(F)(F)F)cc2)oc2ccccc12 [F6] | 102.09 ± 1.62 | 47.26 ± 0.44 | 82.01 ± 0.79 | 17.36 ± 0.62 IU/dL | 8.13 ± 0.51 IU/dL | 18.96 ± 0.60 nmol/g | 64.1% | 17.01 ± 1.89 | 3.41 ± 0.23 min | 8.09 ± 1.77 mg | 408.3 ± 2.60 mg | 171.1 ± 2.40 mg | – | 174.24 ± 2.71 µg/mL (≈ 600 µM) | –
O=c1c(O)c(-c2ccccc2)oc2ccccc12 [OF1] | 105 ± 1.77 mg/dL | 51.22 ± 0.66 | 80.81 ± 0.72 | 17.02 ± 0.71 IU/dL | 8.46 ± 0.76 IU/dL | 19.25 ± 0.51 nmol/g | 63.4% | 17.32 ± 2.33 | 4.32 ± 0.31 min | 8.09 ± 1.34 mg | 397.4 ± 3.76 mg | 188.4 ± 2.24 mg | – | – | –
Cc1ccc(-c2oc3ccccc3c(=O)c2O)cc1 [OF2] | 97.56 ± 1.61 | 42.88 ± 0.41 | 76.82 ± 0.86 | 18.74 ± 0.67 IU/dL | 9.02 ± 0.54 IU/dL | 17.74 ± 0.56 nmol/g | 74.3% | – | 2.95 ± 0.37 min | 7.21 ± 1.87 mg | 414.2 ± 2.51 mg | 190.5 ± 2.76 mg | – | – | –
COc1ccc(-c2oc3ccccc3c(=O)c2O)cc1 [OF3] | 97.06 ± 1.71 | 43.11 ± 0.36 | 76.09 ± 0.64 | 19.02 ± 0.77 IU/dL | 9.58 ± 0.66 IU/dL | 17.49 ± 0.61 nmol/g | 80.9% | – | 2.33 ± 0.28 min | 6.79 ± 1.10 mg | 413.6 ± 2.66 mg | 194.8 ± 2.11 mg | – | 25.54 ± 1.21 µg/mL (≈ 95.2 µM) | –
O=c1c(O)c(-c2ccc(Cl)cc2)oc2ccccc12 [OF4] | 101.15 ± 1.66 | 46.92 ± 0.44 | 78.33 ± 0.76 | 17.45 ± 0.66 IU/dL | 8.35 ± 0.64 IU/dL | 18.67 ± 0.76 nmol/g | – | 14.18 ± 2.17 | 3.44 ± 0.25 min | 7.91 ± 1.91 mg | 401.8 ± 2.34 mg | 183.9 ± 2.56 mg | 67.1% | – | –
CN(C)c1ccc(-c2oc3ccccc3c(=O)c2O)cc1 [OF5] | 101.09 ± 1.14 | 46.24 ± 0.39 | 77.91 ± 0.97 | 17.06 ± 0.61 IU/dL | 8.11 ± 0.51 IU/dL | 18.56 ± 0.51 nmol/g | 63.3% | 16.44 ± 3.04 | 3.25 ± 0.29 min | 8.04 ± 1.18 mg | 400.5 ± 2.21 mg | 186.3 ± 2.74 mg | – | – | –
CN1C(=O)CN=C(c2ccccc2)c2cc(Cl)ccc21 [Standard, Diazepam, reference compound] | 108.2 ± 1.06 mg/dL | 38.52 ± 0.57 | 75.62 ± 0.65 | – | – | – | – | – | – | 10.58 ± 5.77 ^ns mg | – | 158.3 ± 2.89 mg | – | – | reduced the immobility time to a significant level
